Consider two compounds from article PMC10704437, “Sterol-activated amyloid beta fibril formation” (The Journal of Biological Chemistry, 2023).

What is called kon is the rate constant with which the complex forms. The term koff denotes the rate constant with which the complex falls apart. Higher therefore signals a short-lived complex.

The target in series [1] is T1, Aβ42 (Homo sapiens, UniProt P05067).
T1 construct: Small red spheres mark the Aβ42 peptide C-terminal residue, A42; purchased Sigma-Aldrich Corp
T1 sequence (P05067 672-713 limits assumed): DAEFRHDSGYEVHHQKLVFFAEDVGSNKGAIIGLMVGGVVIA
The series is described as follows: Sterol binding to Aβ42, pre-steady-state stopped-flow fluorescence. The following applies: for kon: calculated by dividing koff by Kd; for koff: determined in DHE displacement studies, stopped-flow, 25 °C. On the procedure: To establish the rates at which Aβ42•ligand complexes form and dissociate, the rate constants governing the binding reactions were determined. DHE binding was monitored in real time using a stopped-flow fluorimeter via binding-induced changes in DHE fluorescence. The reactions are pseudo first order in [ligand] and kobs was obtained by least-squares fitting progress curves to a single-exponential equation ([44], [45]). kobs values were determined (in triplicate) at a series of Aβ42 concentrations and the averaged values are plotted versus [Aβ42] in Figure 2B. kon and koff are given by the slope and intercept of the kobs-versus-[Aβ42] plot obtained by linear least-square fitting ([44], [45]). […] The rate constants are compiled in Table 1.
Figure 2 Sterol binding to Aβ42—pre-steady state studies.A, DHE binding. Reactions were monitored via binding induced changes in DHE fluorescence using a stopped-flow fluorimeter (λex = 325, λem > 400 nm). Fluorescence intensity, I, is reported relative to the intensity in the absence of ligand, Io. […] C was rapidly mixed (1:1, v/v) with a solution identical except that Aβ42 was replaced by DHE (40 nM, 2.7 × Kd). The bindingreaction curve shown is the average of five independent progress curves. The averaged curve was a least-squares fit to a single-exponential equation and the resulting best fit (indicated by the red line) yielded kobs. B, DHE kon and koff. kobs values obtained as in Panel A were determined in triplicate at varying Aβ42 concentrations and the averaged values are shown plotted versus [Aβ42]. kon and koff are given by the slope and intercept of a linear least-squares fit of the kobsversus [Aβ42] plot. C and D, CH and CS displacement reactions.
Pre-steady-state binding of sterols to Aβ42 was monitored via the binding-induced change in DHE fluorescence (λex = 325, λem > 400 nm) using an Applied Photophysics SX20 stopped-flow fluorimeter.
Three progress curves (each an average of five independently obtained curves) were collected at five separate Aꞵ42 concentrations. The observed rate constant (kobs) at a given [Aβ42] was obtained by fitting the average of the three curves to a single-exponential equation using Pro-K software ([75]). kon and koff were obtained from the slopes and intercepts predicted by linear least-squares analysis of kobs versus [Aβ42] plots.
C. […] Progress curves were determined in triplicate and koff was obtained by least-squares fitting the averaged curves to a single-exponential equation using Pro-K.

The target in series [2] is T1, Aβ42. The series is described as follows: Aβ42 nucleation rate versus [Aβ42]^2 (ThT, early lag phase, linear fit). The class given is biochemical. The settings on record: linear least-squares fit of Rate-versus-[Aβ42]^2; free ligand 17 × Kd. On the procedure: Reaction 1 of the NEF scheme assumes nucleation is second order in Aβ42 monomer concentration. The reaction order was determined for ligand-bound and free forms of Aβ42 by plotting nucleation rates versus [Aβ42]^n, where n, the reaction order, is 1, 2, or 3—such plots become linear only when n equals the reaction order ([54]). Nucleus formation was monitored via ThT fluorescence in the region of the progress curve where nucleation is rate limiting—the very early stage of the lag phase. Rates were obtained by linear least-squares fitting of progress curves. In all cases, fits were initiated at t0 and deviation from linearity was within experimental error (i.e., χ^2 > 0.95). […] The nucleation rate constants are given by the slopes of the plots (obtained by linear least-squares fitting) and are within the error of those predicted by NEF fitting, see Table 2.
Figure 4 Nucleation reaction order. Reactions were monitored via binding-induced changes in ThT fluorescence (λex = 450 nm, λem = 482 nm). All reactions were performed under the following conditions: ThT (30 μM), DMSO (0.5 % v/v), and K2PO4 (50 mM), pH 7.4, 25 °C ± 2 deg. C. […] A, unliganded Aβ42 nucleation. Titrant concentrations: Aβ42 (1.0, 2.0, 3.0, or 4.0 μM). B, CH•Aβ42 nucleation. […]
The formation of fibril nuclei was monitored via the Aβ-binding induced change in ThT fluorescence (λex = 450 nm, λem = 482 nm, ([42])). […]

Series [3] concerns the target T1, Aβ42. The series is described as follows: Aβ42 fibril formation versus CS percentage (ThT). Format: biochemical. The following applies: [CS]+[CH] 20 μM, Aβ42 1.0 μM. On the procedure: To experimentally assess the potential impact of CS on fibril formation in vivo, fibril synthesis was monitored over a series of CS/CH ratios that span the physiological range.
Figure 8 Aβ42fibril formation versus CS percentage. Fibril formation was detected via binding-induced changes in ThT fluorescence (λex = 450 nm, λem = 482 nm). Reaction conditions: Aβ42 (1.0 μM), CS percent (as indicated), [CS] + [CH] (20 μM), ThT (30 μM), DMSO (0.5 % v/v), K2PO4 (50 mM), pH 7.4, 25 °C ± 2 deg. C. Progress curves were performed in triplicate and averaged data are shown. Lines passing through the data represent the behavior predicted by the NEF model using the Table 2 rate constants.

Details of series [4]: method as in PMID 4525165. The following applies: reported in 1973; cited from earlier work.

SMILES strings stand for the structures. Read-outs that look alike come from different tables or passages of the source.

Take `CC(C)CCC[C@@H](C)[C@H]1CC[C@H]2[C@@H]3CC=C4C[C@@H](OS(=O)(=O)O)CC[C@]4(C)[C@H]3CC[C@]12C` [CS, cholesterol 3-sulfate]: the Kd at Aβ42 [1] is 36 nM. Moreover, at Aβ42 [1], the kon was 2.4e+07 M⁻¹ s⁻¹. Further, the koff on Aβ42 [1] is 0.88 s⁻¹. For the same compound, the “Nucleation rate constant, linear model” value at Aβ42 [2] is 1.5 (0.1) × 10^−11 nM^−1 s^−1. The fibril formation lag-time result was “shortens by several hours” on Aβ42 [3] (0.1% CS), “nearly halved” at Aβ42 [3] (1% CS) and “approaches that of pure CS” at Aβ42 [3] (10% CS).

With `CC(C)CCC[C@@H](C)[C@H]1CC[C@H]2[C@@H]3CC=C4C[C@@H](O)CC[C@]4(C)[C@H]3CC[C@]12C` [CH, cholesterol], on Aβ42 [1], the kon is 2.1e+07 M⁻¹ s⁻¹ and the koff was 2.5 s⁻¹. The Kd on Aβ42 [1] (ratio of rate constants, read-out: koff/kon) worked out at 120 nM. Further, the “Nucleation rate constant, linear model” value at Aβ42 [2] is 7.3 (0.1) × 10^−14 nM^−1 s^−1. Further, the “critical micelle concentration (CMC)” value in series [4] was 25 to 40 nM.
